Results as given in ChEMBL document CHEMBL1122074 (1982).
The source made the active and inactive calls. No cut-off for these calls is given here.

Assays:
[1] = molecular target: T1, Opioid receptor (Mus musculus) (UniProt P42866+P32300+P33534); test: In vitro relative potency to morphine (IC50, 4.4E-8M) in mouse vas deferens was determined; inactive (potentiates contraction at >/=1.6E-6M); format: functional, tissue-based
[2] = molecular target: T1, Opioid receptor (Mus musculus); test: […] relative molar potency represents the morphine ED50 ([…])/compound ED50 using the hotplate procedure in mice; inactive at 140 umol/kg; format: functional
[3] = molecular target: Opioid receptors; mu/kappa/delta (Homo sapiens) (UniProt P41145+P41143+P35372); test: In vitro relative potency to morphine (IC50, 6.8E-8M) in guinea pig ileum was determined; inactive (potentiates contraction at >/=5.4E-8M); format: functional, tissue-based; conditions: Cavia porcellus, target entry is the homologue from another species
[4] = Molar potency (1/IC50) in the guinea pig ileum divided by its potency in the mouse vas deferens.; format: functional

T1 sequence (P32300 whole entry, looked up): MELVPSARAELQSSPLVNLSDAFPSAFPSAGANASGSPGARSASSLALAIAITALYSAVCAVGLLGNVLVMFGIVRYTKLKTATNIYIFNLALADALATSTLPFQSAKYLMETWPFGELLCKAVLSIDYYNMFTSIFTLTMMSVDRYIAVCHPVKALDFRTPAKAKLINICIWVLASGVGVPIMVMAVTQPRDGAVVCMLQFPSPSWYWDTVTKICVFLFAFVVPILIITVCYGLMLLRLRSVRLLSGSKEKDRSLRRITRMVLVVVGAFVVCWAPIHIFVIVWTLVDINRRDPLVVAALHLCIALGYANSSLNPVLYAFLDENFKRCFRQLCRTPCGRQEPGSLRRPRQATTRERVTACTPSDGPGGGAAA
T1 sequence (P33534 whole entry, looked up): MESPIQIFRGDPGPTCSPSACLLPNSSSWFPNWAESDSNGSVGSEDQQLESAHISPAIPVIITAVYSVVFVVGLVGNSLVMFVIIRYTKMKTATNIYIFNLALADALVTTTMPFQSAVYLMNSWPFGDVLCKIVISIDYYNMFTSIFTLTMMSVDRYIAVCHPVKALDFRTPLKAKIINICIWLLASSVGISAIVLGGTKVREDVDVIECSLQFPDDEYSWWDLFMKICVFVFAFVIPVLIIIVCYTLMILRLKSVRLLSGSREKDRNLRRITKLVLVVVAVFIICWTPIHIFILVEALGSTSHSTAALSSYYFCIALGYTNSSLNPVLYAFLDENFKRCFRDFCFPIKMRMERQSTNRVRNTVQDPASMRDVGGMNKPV
T1 sequence (P42866 whole entry, looked up): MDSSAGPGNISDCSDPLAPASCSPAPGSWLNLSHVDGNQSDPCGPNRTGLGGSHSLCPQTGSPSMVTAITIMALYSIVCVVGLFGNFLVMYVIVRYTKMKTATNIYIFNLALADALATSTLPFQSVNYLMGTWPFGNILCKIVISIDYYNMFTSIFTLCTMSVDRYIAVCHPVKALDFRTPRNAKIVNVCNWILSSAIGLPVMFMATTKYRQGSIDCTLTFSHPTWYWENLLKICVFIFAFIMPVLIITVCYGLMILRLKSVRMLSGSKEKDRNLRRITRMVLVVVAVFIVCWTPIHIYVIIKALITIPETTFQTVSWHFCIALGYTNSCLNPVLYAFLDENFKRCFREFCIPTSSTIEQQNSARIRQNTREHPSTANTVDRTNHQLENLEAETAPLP
Sequence of Opioid receptors; mu/kappa/delta (Homo sapiens) (P35372 whole entry, looked up): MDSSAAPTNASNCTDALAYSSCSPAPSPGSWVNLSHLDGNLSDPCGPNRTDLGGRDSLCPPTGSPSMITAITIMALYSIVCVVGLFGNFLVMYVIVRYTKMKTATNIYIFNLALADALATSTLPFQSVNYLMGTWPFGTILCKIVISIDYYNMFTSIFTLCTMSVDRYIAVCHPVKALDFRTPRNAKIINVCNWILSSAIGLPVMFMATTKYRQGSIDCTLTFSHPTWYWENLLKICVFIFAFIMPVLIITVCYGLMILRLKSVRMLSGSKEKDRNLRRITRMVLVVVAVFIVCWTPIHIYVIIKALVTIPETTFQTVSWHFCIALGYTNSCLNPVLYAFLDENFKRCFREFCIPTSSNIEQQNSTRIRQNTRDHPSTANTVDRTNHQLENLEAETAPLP
Sequence of Opioid receptors; mu/kappa/delta (Homo sapiens) (P41143 whole entry, looked up): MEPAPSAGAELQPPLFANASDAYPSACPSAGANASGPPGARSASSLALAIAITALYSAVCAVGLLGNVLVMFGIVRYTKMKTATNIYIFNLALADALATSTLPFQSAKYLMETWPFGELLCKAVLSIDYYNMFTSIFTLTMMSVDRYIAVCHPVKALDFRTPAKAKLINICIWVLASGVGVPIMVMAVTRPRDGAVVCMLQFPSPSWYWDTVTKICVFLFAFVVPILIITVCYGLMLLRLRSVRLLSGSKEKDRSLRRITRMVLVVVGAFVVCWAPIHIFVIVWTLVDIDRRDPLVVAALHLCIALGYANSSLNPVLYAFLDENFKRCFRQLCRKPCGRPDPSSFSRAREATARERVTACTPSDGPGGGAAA
Sequence of Opioid receptors; mu/kappa/delta (Homo sapiens) (P41145 whole entry, looked up): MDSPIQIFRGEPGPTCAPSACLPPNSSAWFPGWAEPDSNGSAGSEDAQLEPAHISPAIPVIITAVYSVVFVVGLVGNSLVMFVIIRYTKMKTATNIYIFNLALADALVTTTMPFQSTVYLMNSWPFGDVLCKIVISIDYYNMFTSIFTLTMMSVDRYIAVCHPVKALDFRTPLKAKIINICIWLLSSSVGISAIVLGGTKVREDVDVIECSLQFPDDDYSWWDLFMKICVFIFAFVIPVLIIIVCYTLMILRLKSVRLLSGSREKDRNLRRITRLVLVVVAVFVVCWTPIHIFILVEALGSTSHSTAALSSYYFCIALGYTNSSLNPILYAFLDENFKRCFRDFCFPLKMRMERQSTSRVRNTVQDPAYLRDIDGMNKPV

SMILES | Relative molar potency [1] | Relative molar potency [2] | Relative molar potency [3] | Molar potency [4]
CCC(=O)C(c1ccccc1)(c1ccccc1)[C@@H](C)[C@H](C)N(C)C (racemic) | inactive | inactive | inactive | –
CCC(=O)C(c1ccccc1)(c1ccccc1)[C@H](C)[C@H](C)N(C)C (single isomer, unassigned) | – | – | – | 1.7
CCC(=O)C(c1ccccc1)(c1ccccc1)C(C)CN(C)C (single isomer, unassigned) | – | – | – | 2.3
CCC(=O)C(c1ccccc1)(c1ccccc1)[C@@H](C)[C@@H](C)N(C)C (single isomer, unassigned) | – | – | – | 6.9
CN1CC[C@]23c4c5ccc(O)c4O[C@H]2[C@@H](O)C=C[C@H]3[C@H]1C5 [MORPHINE] | – | – | – | 6.5
